Assay [1] concerns the target T1, M1-type muscarinic cholinergic receptor (Rattus norvegicus, UniProt P08482).
T1 sequence (P08482 1-460): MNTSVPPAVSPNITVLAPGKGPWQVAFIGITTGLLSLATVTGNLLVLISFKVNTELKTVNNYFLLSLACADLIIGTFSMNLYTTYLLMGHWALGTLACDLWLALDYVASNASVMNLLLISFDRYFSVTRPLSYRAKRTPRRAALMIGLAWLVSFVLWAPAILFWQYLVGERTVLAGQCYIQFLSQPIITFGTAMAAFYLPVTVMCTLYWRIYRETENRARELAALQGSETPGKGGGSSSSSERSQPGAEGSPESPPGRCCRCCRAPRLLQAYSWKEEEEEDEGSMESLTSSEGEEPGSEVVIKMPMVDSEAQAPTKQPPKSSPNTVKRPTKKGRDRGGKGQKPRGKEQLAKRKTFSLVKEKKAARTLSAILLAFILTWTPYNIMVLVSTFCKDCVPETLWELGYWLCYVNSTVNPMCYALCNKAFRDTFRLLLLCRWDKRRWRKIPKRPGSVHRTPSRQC
Description: Test for affinity for the M1-type muscarinic cholinergic receptor: displacement of [3H]pirenzepine on rat hippocampus homogenate. It counts as binding. As to conditions: for IC50: rat hippocampus homogenate, 1 nM [3H]PZ, 2 h at 4° C., pH 7.40; for r = (M2 /M1): ratio of IC50 M2 (3H-NMS, guinea-pig ileum) to IC50 M1 (3H-pirenzepine, rat hippocampus). An excerpt: (§1) The M1 -type receptors are concentrated in certain areas of the brain, such as the hippocampus, the cerebral cortex and the striatum, and also in the sympathetic ganglia. These binding sites can be selectively labeled with [^3 H]pirenzepine ([^3 H]PZ). The M2 -type receptors predominate in the heart and ileum and can be labeled with [^3 H]N-methylscopolamine ([^3 H]NMS). To determine the selectivity of our molecules towards the M1 and M2 sites, we studied their interaction in vitro with [^3 H]PZ and [^3 H]NMS bound with a high affinity to membranes of rat hippocampus and membranes of smooth muscle of guinea-pig ileum, respectively.
The interaction of the molecules with M1 -type muscarinic receptors was studied by in vitro measurement, on a homogenate of rat hippocampus, of the displacement of tritiated pirenzepine ([^3 H]PZ) from its specific binding sites. Aliquots (10 μl) of a 5% (w/v) homogenate of rat hippocampus in an Na2 HPO4 buffer (50 mM, pH 7.40) are incubated for 2 h at 4° C. in the presence of [^3 H]pZ ([…]; final concentration: 1 nM) and increasing concentrations of products to be studied. The final volume is 2 ml. The reaction is stopped by centrifugation for 10 min at 50,000 × g. After decantation and washing of the residues, the bound radioactivity is counted by liquid scintillation. The non-specific binding is determined in the presence of 10 μmol/l of atropine sulfate. The 50% inhibitory concentration (IC50) is determined graphically (Ref.: Watson J. D., Roeskoe W. R. and Yamamura H.1., Life Sci., 31, 2019-2029, 1982).
(§2) Table 4 indicates the affinities of the products of the invention for M1 and M2 receptors. The results are expressed as 50% inhibitory concentrations (IC50), i.e. the concentration (in μM) which causes a 50% displacement placement of the tritiated ligand bound to the membrane receptors. The IC50 for displacement of ^3 H-pirenzepine represents the affinity for the M1 receptor; the IC50 for displacement of 3H-NMS represents the affinity for the M2 receptor.
(In general: Loss of bound radioactivity is the signal in a displacement assay; it reports binding, not function.)

For assay [2], the target named is T2, M2-type muscarinic cholinergic receptor (Cavia porcellus, UniProt H0VRN8).
T2 construct: on a homogenate of smooth muscle of guinea-pig ileum; from tissue; host or cells: guinea-pig ileum smooth muscle homogenate
T2 sequence (H0VRN8 1-466): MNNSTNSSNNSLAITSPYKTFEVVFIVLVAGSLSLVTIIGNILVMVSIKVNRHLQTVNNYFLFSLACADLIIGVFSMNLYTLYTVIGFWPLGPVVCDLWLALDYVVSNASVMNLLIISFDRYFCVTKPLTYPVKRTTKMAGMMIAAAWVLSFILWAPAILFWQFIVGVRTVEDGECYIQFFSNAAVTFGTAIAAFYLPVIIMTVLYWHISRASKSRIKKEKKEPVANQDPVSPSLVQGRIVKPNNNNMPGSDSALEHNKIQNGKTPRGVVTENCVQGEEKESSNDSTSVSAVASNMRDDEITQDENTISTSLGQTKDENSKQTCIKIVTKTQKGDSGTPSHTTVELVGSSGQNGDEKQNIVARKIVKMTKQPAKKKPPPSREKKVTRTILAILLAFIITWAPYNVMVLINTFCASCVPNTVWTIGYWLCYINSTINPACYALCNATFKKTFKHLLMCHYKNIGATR
Kind of assay: Test for affinity for the M2-type muscarinic cholinergic receptor: displacement of [3H]N-methylscopolamine on smooth muscle of guinea-pig ileum. It counts as binding. The settings on record: guinea-pig ileum smooth muscle homogenate, 0.3 nM [3H]NMS, 20 min at 30° C., pH 7.5.
Source text: as §1
The interaction with M2 -type muscarinic receptors was studied by in vitro measurement, on a homogenate of smooth muscle of guinea-pig ileum, of the displacement of tritiated N-methylscopolamine ([^3 H]NMS) from its specific binding sites. Aliquots (50 μl) of a 0.625% (w/v) homogenate of smooth muscle of guinea-pig ileum in MEPES buffer (20 mM) containing NaCl (100 mM) and MgCl2 (10 mM) (final pH: 7.5) are incubated for 20 min at 30° C. in the presence of [^3 H]NMS ([…]; final concentration: 0.3 nM) and increasing concentrations of products to be tested. The final volume is 1 ml. The reaction is stopped by centrifugation for 5 min at 15,000 × g. The non-specific binding is determined in the presence of 10 μmol/l of atropine sulfate (Ref.: Hammer R., Berrie C. P., Birdsall N. I. M., Burgen A. S. V. and Hulme E. C., Nature, 283, 90-92, 1980; Hulme E. C., Birdsall N.1.M., Burgen A. S. V. and Mettha P., Mol. pharmacol., 14, 737-750, 1978).
as §2

Assay [3] addresses T3, M1 central muscarinic cholinergic receptors (Mus musculus, UniProt P12657).
T3 construct: The intrastriatal injection of PZ into mice induces rotational behavior; from tissue; host or cells: right striatum of living female mice (Swiss, CD 1)
T3 sequence (P12657 1-460): T1 sequence (P08482 1-460) with S309P
Description: Antagonism of rotational behavior induced by intrastriatal injection of pirenzepine in mice. It counts as in vivo, mice (female, Swiss, CD 1). The settings on record: ip, read-out: Pirenzepine antagonism ED50. On the procedure:
Pirenzepine (PZ) is a specific antagonist of M1 central muscarinic cholinergic receptors. The intrastriatal injection of PZ into mice induces rotational behavior. The antagonism of this behavior by the products according to the invention was studied.
The products according to the invention are injected intraperitoneally (i.p.) after solubilization in distilled water or suspension in a 5% solution of gum arabic. The control animals receive an injection of the pure solvent under the same conditions.
The animals used are female mice (Swiss, CD 1, Charles River, France) with a body weight of between 25 and 30 grams.
Pirenzepine is dissolved in a phosphate buffer; the pH of the solution is 6.
The products to be studied or their solvents are injected intraperitoneally, in a volume of 0.4 ml per 20 g of body weight, 15 minutes before a direct injection of pirenzepine at a dose of […] into the right striatum of the mouse, according to the method described by p.
The number of contralateral rotations (rotations in the opposite direction to the side injected) was counted for three 2-minute periods after the injection of pirenzepine: minutes 2 to 4, 8 to 10 and 13 to 15. Each treatment includes 3 to 4 doses and 10 animals per dose. For each treatment, the total number of rotations and the percentage antagonism compared with the control group are calculated.

[4] abbreviates: mice, i.p. 15 minutes before intrastriatal pirenzepine, 50% reduction in number of rotations.

Numbering of substitutions follows the chain as printed. “And” between values parts separate entries of the source, which are not always exact repeats. Equal entries are not always repeated. Structures can show the parent of a compound that is named as a salt. Where two headings read alike, the source gives them in different places.

The term IC50 denotes the concentration that inhibits the measured activity by half. Read a low IC50 as greater potency in that assay. For orientation: ED50 means the dose at which the effect has come halfway, by size or by number of responders.

Regarding `CN(C)CCNc1cc2c(nn1)-c1cc([N+](=O)[O-])ccc1CCC2` [SR 44681 A], the IC50 in assay [1] was 0.26 µM; in assay [2], 9 µM. For the same compound, the “r = (M2 /M1)” value in assay [1] stood at 35. In assay [3] (setting [4]), the ED50 is 1 mg/kg.

In the case of `Cl.Cl.c1ccc2c(c1)CCCc1cc(NCCN3CCOCC3)nnc1-2` [SR 95639 A, 3-(2-Morpholinoethylamino)-6,7-dihydro-5H-benzocyclohepta[5,6-c]pyridazine dihydrochloride], in assay [1], the IC50 was 0.4 µM and the “r = (M2 /M1)” value is reported as 137. Moreover, the IC50 in assay [2] is 55 µM. Besides, in assay [3], the ED50 was 5 mg/kg.

For `CCN(CC)CCNc1cc2c(nn1)-c1ccccc1CCC2` [SR 95640 A], the IC50 in assay [1] stood at 0.05 µM; in assay [2], 2 µM. In assay [1], the “r = (M2 /M1)” value was found to be 40. Further, the ED50 in assay [3] (setting [4]) came to 3 mg/kg.

`Cl.Cl.c1ccc2c(c1)ccc1cc(NCCN3CCOCC3)nnc12` [SR 95679 A, 3-(2-Morpholinoethylamino)benzo[h]cinnoline dihydrochloride]: the IC50 was 3.1 µM in assay [1]; 100 µM and > 100 µM in assay [2]. Moreover, in assay [1] (dihydrochloride), the “r = (M2 /M1)” value is 32 and > 32. Also, in assay [3], the ED50 is 10 mg/kg.

In the case of `Cl.Cl.c1ccc2c(c1)CCc1cc(NCCN3CCOCC3)nnc1-2` [SR 95695 A, 3-(2-Morpholinoethylamino)-5,6-dihydrobenzo[h]cinnoline dihydrochloride], the IC50 in assay [1] was 2.6 µM; in assay [2], 100 µM and > 100 µM. Further, the “r = (M2 /M1)” value in assay [1] (dihydrochloride) was 38 and > 38. Also, in assay [3], the ED50 was 5 mg/kg.

For the compound `CCN(CC)CCSc1cc2c(nn1)-c1ccccc1CC2.Cl` [SR 95743 A, 3-(2-Diethylaminoethylthio)-5,6-dihydrobenzo[h]cinnoline hydrochloride], in assay [1], the IC50 was determined as 0.7 µM and the “r = (M2 /M1)” value worked out at 14. The IC50 in assay [2] was 10 µM. Further, the ED50 in assay [3] amounted to 8 mg/kg.

`CN(C)CCOc1cc2c(nn1)-c1ccccc1CC2.Cl` [SR 95745 A, 3-(2-Dimethylaminoethoxy)-5,6-dihydrobenzo[h]cinnoline hydrochloride]: in assay [1], the 50% inhibitory concentration (IC50) came to 3.9 µM and the “r = (M2 /M1)” value was determined as 21. The same compound had an IC50 in assay [2] of 80 µM. The ED50 in assay [3] was 8 mg/kg.

Regarding `CCN(CC)CCCNc1cc2c(nn1)-c1ccccc1CC2.Cl.Cl` [SR 95746 A, 3-(3-Diethylaminopropylamino)-5,6-dihydrobenzo[h]-cinnoline dihydrochloride], in assay [1], the IC50 was 1.5 µM and the “r = (M2 /M1)” value was 17. In assay [2], this compound had an IC50 of 25 µM. Further, the ED50 in assay [3] fell in the range of 10 to 30 mg/kg.

Regarding `CCN(CC)CCNc1cc2c(nn1)-c1cc([N+](=O)[O-])ccc1CCC2.Cl.Cl` [SR 95777 A, 3-(2-Diethylaminoethylamino)-10-nitro-6,7-dihydro-5H-benzocyclohepta[5,6-c]pyridazine dihydrochloride], in assay [1], the IC50 was 0.1 µM and the “r = (M2 /M1)” value amounted to 56. In assay [2], this compound showed an IC50 of 5.6 µM. Further, the ED50 in assay [3] was determined as 0.5 mg/kg.

As to `CCN(CC)CCCNc1cc2c(nn1)-c1ccccc1CCC2` [SR 95818 A], in assay [1], the IC50 was 0.24 µM and the “r = (M2 /M1)” value is 50. In assay [2], this compound displayed an IC50 of 12 µM. Also, the ED50 in assay [3] (setting [4]) came out at 7 mg/kg.

Regarding `CCN(CC)CCSc1cc2c(nn1)-c1ccccc1CCC2` [SR 95820 A, 3-(2-Diethylaminoethylthio)-6,7-dihydro-5H-benzocyclohepta[ [drawing 52] 5,6-c]pyridazine hydrochloride], the IC50 in assay [1] worked out at 0.07 µM; in assay [2], 2 µM. Also, the “r = (M2 /M1)” value in assay [1] is listed as 29. Moreover, the ED50 in assay [3] (setting [4]) came to 8 mg/kg.

Take `CN(C)CCOc1cc2c(nn1)-c1ccccc1CCC2.Cl` [SR 95822 A, 3-(2-Dimethylaminoethoxy)-6,7-dihydro-5H-benzocyclohepta[5,6-c]pyridazine hydrochloride]: in assay [1], the IC50 amounted to 1 µM and the “r = (M2 /M1)” value stood at 9.5. This compound also came in with an IC50 in assay [2] of 9.5 µM. The ED50 in assay [3] came to 3 mg/kg.

Regarding `CN(C)CCNc1cc2c(nn1)-c1ccccc1CCC2` [SR 95824 A], the figures for the IC50 in assay [1] and in assay [2] were 0.2 µM and 25 µM, respectively. Besides, in assay [1], the “r = (M2 /M1)” value was determined as 125. Also, in assay [3] (setting [4]), the ED50 stood at 3 mg/kg.
